Reference: US20210301038A1, “POLYSIALIC ACID AND DERIVATIVES THEREOF, PHARMACEUTICAL COMPOSITION AND METHOD OF PRODUCING POLYSIALIC ACID” (Medizinische Hochschule Hannover (MHH), priority 2018, published 2021)

How the values were obtained:
[1] = tested on: dissociated hippocampal cultures (primary neural cells); experiment: MTT assay of neural cell viability; type: cell-based, mouse; conditions: 30 to 1000 nM, 48 hours, from 10th day in vitro; DP10 effect at 30, 100 and 300 nM
Procedure: Primary hippocampal cells were dissociated from embryonic mice on embryonic day 18. To prepare the primary neural cultures, pregnant C57/BL6J mice were sacrificed by cervical dislocation. Embryos were decapitated, and the hippocampi isolated from brains under sterile conditions and dissected. Enzymatic digestion by 0.25% trypsin/EDTA solution was followed by separation of the cells in serum-containing medium via trituration (10 passes, 1 ml pipette). The primary cells were seeded onto 96-well plates coated with 100 μg/ml poly-lysine and 20 μg/ml laminin. The plating density was 20,000 cells per well. First, 200 μl Dulbecco's modified Eagle's medium (DMEM) was applied per well (supplemented with 1% penicillin-streptomycin and 1% L-glutamine and 2% B27). After incubation for 2 h at 37° C./5% CO2, the medium was exchanged with the pre-warmed Neurobasal medium including 1% penicillin-streptomycin, 1% L-glutamine, and 2% B27. The cells—predominantly neurons and astrocytes—were incubated at 37° C. in 5% CO2 humidified atmosphere for 10 days before administration of reagents.
The assay was performed as described elsewhere with minor modifications (Khalid et al., 2018). Primary neural cells (see above) grown in a 96-well plate were exposed to drugs/vehicles for 48 h at 37° C./5% CO2. After aspiration of culture media, a washing was done with 100 μl phosphate buffered saline (PBS, pH=7.2). Then, PBS was completely removed, and 100 μl phenol red-free pre-warmed Neurobasal media and 50 μl MTT solution (3-(4,5-dimethylthiazol-2-yl)-2,5-diphenyltetrazolium bromide, 5 mg/ml; dissolved in PBS) were added to each well and plates were incubated for 4 h in an incubator. […] DMSO destroyed the cells and released the formazan, which was detected by optical density value at 560 nm, measured using a plate reader. Optical density values for wells containing cells were corrected by subtracting values measured in cell-free wells prepared and treated in the same way as wells containing control cells.

[2] = tested on: NMDAR-EPSCs (GluN1/GluN2B receptors); experiment: Evoked NMDAR-EPSCs, whole-cell patch-clamp of layer V pyramidal neurons in sham- or endoNF-treated mPFC slices; type: cell-based, mouse; conditions: for inhibition of NMDAR-EPSC amplitude: sham-treated mPFC slices, DP12 1 μg/ml, then subsequently applied 0.3 μM Ro 25-6981
Text: Each mouse was quickly sacrificed by cervical dislocation. After decapitation, the brain was rapidly removed from the skull and placed in ice-cold artificial cerebrospinal fluid (aCSF) equilibrated with 95% O2/5% CO2, which was composed of the following (in mM): 250 sucrose, 24 NaHCO3, 25 glucose, 2.5 KCl, 1.25 NaH2PO4, 2 CaCl2, and 1.5 MgCl2 (osmolarity 345-350 mOsm/kg, pH 7.4). Using a VT1200S vibratome (Leica, Nussloch, Germany), coronal slices containing the prelimbic and infralimbic cortices (1.9-1.3 mm anterior to bregma) were cut 350 μm or 400 μm thick, for patch clamp and extracellular recordings, respectively, in the same sucrose-containing aCSF. Then, the slices were transferred to a slice holding chamber filled with recording aCSF (osmolarity 300-305 mOsm/kg, pH 7.4) that contained 120 mM NaCl instead of sucrose (Eckhardt et al., 2000) and was continuously gassed with 95% O2/5% CO2.
For endoNF treatment in C57BL/6J mice, slices were first allowed to recover for 20 min at room temperature (22-24° C.) in recording aCSF and were then placed in a 24-well plate to be incubated in 2 ml of aCSF without (sham) or with addition of endoNF (10 μg/ml) at 35° C. for 2 hours. The 24-well plate was installed in a water bath (ED, Julabo, Seelbach, Germany). For field excitatory postsynaptic potential (fEPSP) recordings in knockout and transgenic mice, mPFC slices were incubated in recording aCSF for >2 hours at room temperature before recordings. For patch-clamp recordings in knockout mice, slices were incubated first at 35° C. for 20 min and then at room temperature for >30 min before recordings started. The aCSF was continuously gassed with 95% O2/5% CO2 during all incubation steps and recordings.
For whole-cell patch-clamp recordings, layer V pyramidal neurons were visualized using a SliceScope Pro 6000 equipped with a 40× water-immersion objective and infrared differential interference contrast microscopy (Scientifica, Uckfield, UK). Pyramidal cells were identified by their triangular soma and long apical dendrites, and synaptically evoked excitatory postsynaptic currents (EPSCs) were recorded using patch pipettes (3-5 MQ) fabricated using borosilicate glass capillaries (wall thickness 0.315, length 100, outer diameter 1.5 mm, Hilgenberg) and a DMZ-Zeitz puller (Zeitz Instruments GmbH, Martinsried, Germany). The intracellular pipette solution contained the following (in mM): 140.7 Cs-methane-sulfonate, 5 NaCl, 1 MgCl2, 0.2 EGTA, 10 HEPES, 3 ATP-Mg, 0.3 Na-GTP, and 3.1 QX-314 (osmolarity 295 mOsm/kg, adjusted to pH 7.2 with CsOH). EPSCs were evoked by electrical pulses (0.2 ms) at 0.033 Hz via a glass pipette placed in layer II/III of the mPFC (identically to fEPSPs). Mixed EPSCs showing a fast AMPAR-mediated component and a slow NMDAR-mediated component were recorded at a −60 mV holding potential in whole-cell voltage-clamp mode in normal aCSF. The stimulation intensity was adjusted to evoke mixed EPSCs with amplitudes of approximately 300 pA. The slow NMDAR-mediated component of EPSCs was pharmacologically isolated at −60 mV in modified aCSF containing low Mg^2+ (0.1 mM) and high Ca^2+ (3.2 mM, for adjustment of divalent cation concentrations), the selective antagonist of α-amino-3-hydroxy-5-methyl-4-isoxazolepropionic acid (AMPA)/kainate receptors NBQX (10 μM), and the selective antagonist of γ-aminobutyric acid (GABA)B receptors CGP-55845 (2 μM) (Chen et al., 2003). The washout of Mg^2+ required at least 25 min. Recordings at a holding potential near the resting membrane potential allowed us to obtain stable NMDAR-EPSC recordings from pyramidal cells lasting for 1-1.5 hours. Series resistance (Rs, range 10-25 MΩ) was compensated (20-30%) and monitored continuously. Neurons in which Rs changed by more than 20% throughout the experiment were not included in the analysis. In voltage-clamp mode, membrane potential was not corrected for liquid junction potential. […]

C[C@@H](CN1CCC(Cc2ccccc2)CC1)[C@@H](O)c1ccc(O)cc1.O=C(O)/C=C\C(=O)O [Ro 25-6981, (αR,βS)-α-(4-hydroxyphenyl)-β-methyl-4-(phenylmethyl)-1-piperidinepropanol maleate]
effect on neural cell viability [1]: no effects | reduction of EPSC amplitude on subsequent application after DP1 ([2]; endoNF-treated slices, 0.3 μM): ~20% | reduction of NMDAR-EPSC amplitude on subsequent application after DP12 ([2]; endoNF-treated slices, 0.3 μM Ro 25-6981 after DP12): marginally | inhibition of NMDAR-EPSC amplitude [2]: no significant inhibition

(α(2→8)Neu5Ac)12 [DP12]
effect on neural cell viability [1]: No effects | decrease of NMDAR-EPSC amplitude ([2]; endoNF-treated slices, 1 μg/ml): ~25% | inhibition as % of the mean inhibition produced by Ro 25-6981 applied alone ([2]; endoNF-treated slices, same time window, estimated): ~90% | inhibition of NMDAR-EPSC amplitude [2]: no significant inhibition
